Data: publication PMC5725665, “Discovery of a Highly Selective Cell‐Active Inhibitor of the Histone Lysine Demethylases KDM2/7” (Angewandte Chemie (International Ed. in English), 2017)

Key:
SGF29 = molecular target: T1, SGF29 (Homo sapiens, UniProt Q96ES7); assay: biochemical; design: AlphaScreen peptide displacement assay, methyl-lysine reader domains; settings: read-out: IC50 reader domains, AlphaScreen
T1 sequence (Q96ES7 1-293): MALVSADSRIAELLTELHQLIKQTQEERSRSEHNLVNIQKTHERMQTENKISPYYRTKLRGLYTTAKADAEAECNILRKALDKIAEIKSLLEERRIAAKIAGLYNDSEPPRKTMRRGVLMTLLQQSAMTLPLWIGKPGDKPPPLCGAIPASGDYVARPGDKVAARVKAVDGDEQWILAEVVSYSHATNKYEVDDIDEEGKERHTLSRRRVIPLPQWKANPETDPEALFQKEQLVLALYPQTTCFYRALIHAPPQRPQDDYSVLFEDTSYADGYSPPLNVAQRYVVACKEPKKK
Procedure: (§1) S106 1.76 1.63 2.01 133 2.78 6.13 6.23 3.55 2.63 1.75 1.31 Table S-3: Summary of indoles tested. IC50 values correspond to KDM2A inhibition by AlphaScreen. 3.2 Selectivity-screening against other epigenetic writer and reader proteins Methyl-Lysine Reader domain assays. Fluorescence polarisation assays for methyl-lysine reader domains were carried out as described. AlphaScreen peptide displacement assays were performed according to manufacturer’s protocol (PerkinElmer, USA) with minor modifications. All reagents were diluted in 25 mM HEPES, 100 mM NaCl, 0.1 % BSA, pH 7.4 and 0.05 % CHAPS and allowed to equilibrate to room temperature prior to addition to plates. An 11-point 1:2.0

KDM7B PHD-finger domain = molecular target: T2, KDM7B PHD-finger domain (Homo sapiens, UniProt Q9UPP1); assay: biochemical; design: AlphaScreen peptide displacement assay, methyl-lysine reader domains; settings: read-out: IC50 reader domains, AlphaScreen
T2 construct: gene PHF8; PHD-finger domain
Procedure: as §1

CHD1 = CHD1 (Homo sapiens, UniProt O14646); assay: biochemical; design: AlphaScreen peptide displacement assay, methyl-lysine reader domains; settings: read-out: IC50 reader domains, AlphaScreen
Procedure: as §1

SPIN1 = SPIN1 (Homo sapiens, UniProt Q9Y657); assay: biochemical; design: AlphaScreen peptide displacement assay, methyl-lysine reader domains; settings: read-out: IC50 reader domains, AlphaScreen
Procedure: as §1

KDM4A Tudor domain = molecular target: T3, KDM4A Tudor domain (Homo sapiens, UniProt O75164); assay: biochemical; design: AlphaScreen peptide displacement assay, methyl-lysine reader domains; settings: read-out: IC50 reader domains, AlphaScreen
T3 construct: Tudor domain
T3 sequence (O75164 1-1064): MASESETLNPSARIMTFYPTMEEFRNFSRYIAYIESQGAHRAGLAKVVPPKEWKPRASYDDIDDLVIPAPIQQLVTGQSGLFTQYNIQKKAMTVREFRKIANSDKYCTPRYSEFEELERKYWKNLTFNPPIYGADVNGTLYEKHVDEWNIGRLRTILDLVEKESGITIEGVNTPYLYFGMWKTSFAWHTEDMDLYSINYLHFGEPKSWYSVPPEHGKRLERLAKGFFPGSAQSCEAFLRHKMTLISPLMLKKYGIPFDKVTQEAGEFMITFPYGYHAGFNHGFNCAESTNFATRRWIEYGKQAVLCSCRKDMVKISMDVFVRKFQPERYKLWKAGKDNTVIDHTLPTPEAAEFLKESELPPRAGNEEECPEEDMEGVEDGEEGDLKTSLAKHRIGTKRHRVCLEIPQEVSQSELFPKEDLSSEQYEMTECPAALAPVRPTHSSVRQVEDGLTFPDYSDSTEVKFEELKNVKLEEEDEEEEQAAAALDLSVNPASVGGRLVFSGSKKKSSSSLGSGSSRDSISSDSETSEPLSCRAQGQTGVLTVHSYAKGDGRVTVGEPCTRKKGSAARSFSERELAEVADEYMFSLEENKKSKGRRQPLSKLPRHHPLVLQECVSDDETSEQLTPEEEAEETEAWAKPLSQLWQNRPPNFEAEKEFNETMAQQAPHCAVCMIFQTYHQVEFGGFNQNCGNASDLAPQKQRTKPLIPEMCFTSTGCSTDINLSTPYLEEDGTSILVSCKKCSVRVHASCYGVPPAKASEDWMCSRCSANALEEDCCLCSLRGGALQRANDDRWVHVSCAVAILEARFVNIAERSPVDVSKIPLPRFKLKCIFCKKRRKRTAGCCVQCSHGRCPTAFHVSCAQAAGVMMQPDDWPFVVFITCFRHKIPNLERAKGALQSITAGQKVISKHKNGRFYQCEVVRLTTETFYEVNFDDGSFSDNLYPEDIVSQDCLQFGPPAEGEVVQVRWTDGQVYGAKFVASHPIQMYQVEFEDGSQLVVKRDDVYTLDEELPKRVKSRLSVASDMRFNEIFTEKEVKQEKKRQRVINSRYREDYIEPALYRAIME
Procedure: as §1

KDM7A = molecular target: T4, KDM7A (Homo sapiens, UniProt Q6ZMT4); assay: AlphaScreen demethylase assay; format: biochemical
T4 construct: isolated enzyme
T4 sequence (Q6ZMT4 1-941): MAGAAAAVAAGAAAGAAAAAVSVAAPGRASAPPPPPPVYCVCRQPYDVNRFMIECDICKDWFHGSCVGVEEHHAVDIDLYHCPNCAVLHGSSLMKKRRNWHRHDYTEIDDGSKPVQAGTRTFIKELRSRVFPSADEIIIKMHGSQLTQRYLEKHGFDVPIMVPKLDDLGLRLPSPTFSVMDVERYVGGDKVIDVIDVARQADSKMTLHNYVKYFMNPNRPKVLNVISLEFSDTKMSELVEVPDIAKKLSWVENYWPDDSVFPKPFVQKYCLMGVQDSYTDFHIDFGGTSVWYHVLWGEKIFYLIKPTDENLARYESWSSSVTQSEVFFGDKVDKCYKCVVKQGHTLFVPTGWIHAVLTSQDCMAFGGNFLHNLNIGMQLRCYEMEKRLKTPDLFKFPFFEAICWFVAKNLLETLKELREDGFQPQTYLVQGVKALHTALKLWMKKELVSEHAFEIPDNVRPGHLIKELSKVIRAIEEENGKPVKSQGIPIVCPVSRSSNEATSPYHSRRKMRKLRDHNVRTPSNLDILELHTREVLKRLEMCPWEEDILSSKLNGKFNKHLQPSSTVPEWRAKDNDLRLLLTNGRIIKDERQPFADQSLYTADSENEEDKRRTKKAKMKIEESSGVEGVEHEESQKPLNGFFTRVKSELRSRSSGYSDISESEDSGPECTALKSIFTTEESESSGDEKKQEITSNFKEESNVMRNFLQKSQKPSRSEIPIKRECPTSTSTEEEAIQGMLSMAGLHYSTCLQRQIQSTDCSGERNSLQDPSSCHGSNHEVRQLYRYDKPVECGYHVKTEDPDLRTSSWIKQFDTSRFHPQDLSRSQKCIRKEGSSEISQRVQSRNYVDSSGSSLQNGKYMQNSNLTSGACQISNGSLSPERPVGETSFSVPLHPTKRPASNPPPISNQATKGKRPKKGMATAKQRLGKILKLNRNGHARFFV

T2 sequence (Q9UPP1 whole entry, the tested form may be a part): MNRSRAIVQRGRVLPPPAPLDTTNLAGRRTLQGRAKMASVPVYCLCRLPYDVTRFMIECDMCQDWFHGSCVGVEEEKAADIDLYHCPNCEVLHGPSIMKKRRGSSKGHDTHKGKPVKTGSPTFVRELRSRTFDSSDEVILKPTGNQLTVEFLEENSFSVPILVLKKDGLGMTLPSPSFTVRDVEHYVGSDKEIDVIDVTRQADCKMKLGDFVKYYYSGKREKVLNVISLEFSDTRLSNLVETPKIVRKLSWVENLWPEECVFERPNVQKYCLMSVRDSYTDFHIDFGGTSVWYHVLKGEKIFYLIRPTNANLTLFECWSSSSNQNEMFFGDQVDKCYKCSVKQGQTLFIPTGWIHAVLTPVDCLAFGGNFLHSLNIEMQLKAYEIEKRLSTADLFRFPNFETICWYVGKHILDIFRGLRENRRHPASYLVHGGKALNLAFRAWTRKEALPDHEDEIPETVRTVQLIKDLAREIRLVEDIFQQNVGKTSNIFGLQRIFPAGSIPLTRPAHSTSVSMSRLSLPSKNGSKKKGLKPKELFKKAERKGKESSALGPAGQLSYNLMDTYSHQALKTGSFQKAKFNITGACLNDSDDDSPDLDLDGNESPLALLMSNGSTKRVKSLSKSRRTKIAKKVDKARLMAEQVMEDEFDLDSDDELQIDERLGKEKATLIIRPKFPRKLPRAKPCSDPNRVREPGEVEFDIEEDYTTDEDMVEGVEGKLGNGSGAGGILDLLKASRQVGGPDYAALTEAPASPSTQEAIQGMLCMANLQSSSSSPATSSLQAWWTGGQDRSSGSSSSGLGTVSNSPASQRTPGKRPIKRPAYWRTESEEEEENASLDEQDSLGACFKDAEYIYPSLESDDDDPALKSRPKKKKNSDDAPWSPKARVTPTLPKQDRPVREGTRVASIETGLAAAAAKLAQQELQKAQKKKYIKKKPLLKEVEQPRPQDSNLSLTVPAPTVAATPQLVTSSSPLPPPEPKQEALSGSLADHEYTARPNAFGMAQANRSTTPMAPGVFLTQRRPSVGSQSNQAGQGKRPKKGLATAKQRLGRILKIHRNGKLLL
Chain of CHD1 (O14646 whole entry, the tested form may be a part): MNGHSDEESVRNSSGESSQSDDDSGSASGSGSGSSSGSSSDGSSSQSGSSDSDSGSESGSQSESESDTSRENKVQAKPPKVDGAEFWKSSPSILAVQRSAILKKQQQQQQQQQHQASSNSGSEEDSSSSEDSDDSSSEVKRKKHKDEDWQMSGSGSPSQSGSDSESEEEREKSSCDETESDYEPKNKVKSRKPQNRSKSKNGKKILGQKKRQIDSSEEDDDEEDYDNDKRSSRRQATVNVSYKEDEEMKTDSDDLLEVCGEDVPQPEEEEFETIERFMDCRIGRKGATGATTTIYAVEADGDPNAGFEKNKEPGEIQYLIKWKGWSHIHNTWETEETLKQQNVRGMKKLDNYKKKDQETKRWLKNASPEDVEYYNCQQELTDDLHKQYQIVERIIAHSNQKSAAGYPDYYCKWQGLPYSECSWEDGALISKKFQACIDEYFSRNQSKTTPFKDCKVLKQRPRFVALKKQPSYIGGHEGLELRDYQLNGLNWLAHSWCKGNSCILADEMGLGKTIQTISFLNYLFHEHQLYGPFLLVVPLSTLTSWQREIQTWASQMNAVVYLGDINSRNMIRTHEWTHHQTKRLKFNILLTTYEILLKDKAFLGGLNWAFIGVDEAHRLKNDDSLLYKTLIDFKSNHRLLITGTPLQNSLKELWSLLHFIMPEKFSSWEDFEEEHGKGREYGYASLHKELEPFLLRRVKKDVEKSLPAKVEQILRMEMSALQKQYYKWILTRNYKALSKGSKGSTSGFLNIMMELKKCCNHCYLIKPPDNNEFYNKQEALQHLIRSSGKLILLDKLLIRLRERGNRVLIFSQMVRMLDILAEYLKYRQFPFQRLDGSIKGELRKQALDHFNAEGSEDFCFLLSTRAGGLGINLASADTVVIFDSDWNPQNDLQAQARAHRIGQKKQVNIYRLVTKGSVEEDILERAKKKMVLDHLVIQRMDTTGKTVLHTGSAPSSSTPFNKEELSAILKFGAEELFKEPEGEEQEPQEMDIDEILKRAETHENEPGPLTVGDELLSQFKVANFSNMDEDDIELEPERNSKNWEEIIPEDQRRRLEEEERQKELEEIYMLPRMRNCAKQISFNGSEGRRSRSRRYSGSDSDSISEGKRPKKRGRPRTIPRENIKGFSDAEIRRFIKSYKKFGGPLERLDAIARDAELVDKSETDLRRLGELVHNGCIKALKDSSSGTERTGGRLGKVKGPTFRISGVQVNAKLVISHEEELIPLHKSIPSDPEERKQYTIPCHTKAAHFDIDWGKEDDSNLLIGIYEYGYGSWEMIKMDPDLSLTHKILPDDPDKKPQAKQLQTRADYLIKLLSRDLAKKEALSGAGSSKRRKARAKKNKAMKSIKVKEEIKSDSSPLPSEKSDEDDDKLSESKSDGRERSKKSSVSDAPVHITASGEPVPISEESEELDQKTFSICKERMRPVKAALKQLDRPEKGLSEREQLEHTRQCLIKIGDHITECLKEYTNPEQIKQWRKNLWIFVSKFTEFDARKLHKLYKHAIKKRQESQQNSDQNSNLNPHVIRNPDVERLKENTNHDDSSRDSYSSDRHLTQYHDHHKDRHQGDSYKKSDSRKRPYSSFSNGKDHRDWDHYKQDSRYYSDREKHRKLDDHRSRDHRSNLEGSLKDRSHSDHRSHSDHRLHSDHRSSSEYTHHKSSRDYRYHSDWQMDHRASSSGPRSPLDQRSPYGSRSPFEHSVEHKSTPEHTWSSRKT
Chain of SPIN1 (Q9Y657 whole entry, the tested form may be a part): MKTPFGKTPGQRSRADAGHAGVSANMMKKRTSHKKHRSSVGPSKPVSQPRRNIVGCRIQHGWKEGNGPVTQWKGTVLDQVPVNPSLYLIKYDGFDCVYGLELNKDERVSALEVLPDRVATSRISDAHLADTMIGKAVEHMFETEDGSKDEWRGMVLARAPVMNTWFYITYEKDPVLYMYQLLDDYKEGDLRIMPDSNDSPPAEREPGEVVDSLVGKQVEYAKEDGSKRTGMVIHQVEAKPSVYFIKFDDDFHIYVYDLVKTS

IC50 (SGF29): > 20 µM | IC50 (KDM7B PHD-finger domain): > 20 µM | IC50 (CHD1): > 20 µM | IC50 (SPIN1): > 20 µM | IC50 (KDM4A Tudor domain): > 20 µM | IC50 (KDM7A): 0.19 µM
SMILES: CC(=O)N1c2ccccc2[C@@](C#N)(c2ccccc2)[C@@H]1c1cncc(CCCCCCCN2CCCC2)c1 [(S,S)-6]
